US12448395B2 (BRISTOL-MYERS SQUIBB COMPANY, priority 2019, dated 2025)

Biological target: T1, human TLR9 (Homo sapiens, UniProt Q9NR96)
T1 sequence (Q9NR96 26-1032): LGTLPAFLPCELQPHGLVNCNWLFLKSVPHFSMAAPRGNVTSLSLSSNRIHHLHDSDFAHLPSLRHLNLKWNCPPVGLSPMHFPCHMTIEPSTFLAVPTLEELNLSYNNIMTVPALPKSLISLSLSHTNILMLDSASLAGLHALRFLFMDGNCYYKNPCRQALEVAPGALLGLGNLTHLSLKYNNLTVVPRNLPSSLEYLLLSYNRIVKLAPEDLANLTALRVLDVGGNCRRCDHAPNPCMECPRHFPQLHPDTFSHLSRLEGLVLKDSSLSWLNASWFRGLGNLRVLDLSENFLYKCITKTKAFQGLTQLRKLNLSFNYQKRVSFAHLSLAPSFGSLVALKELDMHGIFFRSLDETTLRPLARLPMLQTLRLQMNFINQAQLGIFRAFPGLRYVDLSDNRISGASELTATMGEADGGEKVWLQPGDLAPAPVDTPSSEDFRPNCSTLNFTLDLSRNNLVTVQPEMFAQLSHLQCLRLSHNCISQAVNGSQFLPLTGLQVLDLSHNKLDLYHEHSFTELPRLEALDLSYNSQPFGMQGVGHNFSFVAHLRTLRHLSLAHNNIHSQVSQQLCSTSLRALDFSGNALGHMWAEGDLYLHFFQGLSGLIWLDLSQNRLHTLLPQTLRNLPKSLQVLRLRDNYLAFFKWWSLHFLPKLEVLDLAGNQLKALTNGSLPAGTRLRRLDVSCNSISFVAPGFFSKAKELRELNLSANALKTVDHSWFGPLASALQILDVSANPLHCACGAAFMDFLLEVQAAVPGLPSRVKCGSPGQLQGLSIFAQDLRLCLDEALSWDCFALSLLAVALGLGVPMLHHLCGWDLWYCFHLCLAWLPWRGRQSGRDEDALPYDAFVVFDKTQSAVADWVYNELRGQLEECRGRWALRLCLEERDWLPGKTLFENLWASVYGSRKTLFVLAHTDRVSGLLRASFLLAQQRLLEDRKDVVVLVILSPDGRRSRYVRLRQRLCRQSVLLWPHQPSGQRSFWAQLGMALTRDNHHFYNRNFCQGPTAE
Test: TLR9 inhibition reporter assay (HEK-Blue SEAP, ODN2006 stimulation)
Type: cell-based
Conditions: HEK-Blue cells overexpressing human TLR9, ODN2006 5 nM
Protocol: TLR7/8/9 Inhibition Reporter Assays
HEK-Blue™-cells (Invivogen) overexpressing human TLR7, TLR8 or TLR9 receptors were used for screening inhibitors of these receptors using an inducible SEAP (secreted embryonic alkaline phosphatase) reporter gene under the control of the IFN-β minimal promoter fused to five NF-κB and AP-1-binding sites. Briefly, cells are seeded into Greiner 384 well plates (15000 cells per well for TLR7, 20,000 for TLR8 and 25,000 for TLR9) and then treated with test compounds in DMSO to yield a final dose response concentration range of 0.05 nM-50 μM. After a 30 minute compound pre-treatment at room temperature, the cells are then stimulated with a TLR7 ligand (gardiquimod at a final concentration of 7.5 μM), TLR8 ligand (R848 at a final concentration of 15.9 μM) or TLR9 ligand (ODN2006 at a final concentration of 5 nM) to activate NF-κB and AP-1 which induce the production of SEAP. After a 22 hour incubation at 37° C., 5% CO2, SEAP levels are determined with the addition of HEK-Blue™ Detection reagent (Invivogen), a cell culture medium that allows for detection of SEAP, according to manufacturer's specifications. The percent inhibition is determined as the % reduction in the HEK-Blue signal present in wells treated with agonist plus DMSO alone compared to wells treated with a known inhibitor.

| SMILES | IC50 |
| --- | --- |
| CNC(=O)CN1CCN(c2nc3c(C(C)C)c(-c4cn5ncnc5c(C)c4C)[nH]c3s2)[C@@H](C)C1 [Example 342, (S)-2-(4-(5-(7,8-dimethyl-[1,2,4]triazolo[1,5-a]pyridin-6-yl)-6-isopropyl-4H-pyrrolo[3,2-d]thiazol-2-yl)-3-methylpiperazin-1-yl)-N-methylacetamide] | > 50 µM |
| Cc1c(-c2[nH]c3sc(CN4CC5(COC5)C4)nc3c2C(C)C)cn2ncnc2c1C [Example 408, 6-((5-(7,8-dimethyl-[1,2,4]triazolo[1,5-a]pyridin-6-yl)-6-isopropyl-4H-pyrrolo[3,2-d]thiazol-2-yl)methyl)-2-oxa-6-azaspiro[3.3]heptane] | > 50 µM |
| Cc1c(-c2[nH]c3sc(N4CCN(CC(=O)N(C)C)C[C@@H]4C)nc3c2C(C)C)cn2ncnc2c1C [Example 343, (S)-2-(4-(5-(7,8-dimethyl-[1,2,4]triazolo[1,5-a]pyridin-6-yl)-6-isopropyl-4H-pyrrolo[3,2-d]thiazol-2-yl)-3-methylpiperazin-1-yl)-N,N-dimethylacetamide] | > 50 µM |
| Cc1c(-c2[nH]c3sc(N4C[C@@H](C)N(CC(=O)N(C)C)C[C@@H]4C)nc3c2C(C)C)cn2ncnc2c1C [Example 335, 2-((2R,5S)-4-(5-(7,8-dimethyl-[1,2,4]triazolo[1,5-a]pyridin-6-yl)-6-isopropyl-4H-pyrrolo[3,2-d]thiazol-2-yl)-2,5-dimethylpiperazin-1-yl)-N,N-dimethylacetamide] | > 50 µM |
| Cc1c(-c2[nH]c3sc(C(N)=O)nc3c2C(C)C)cn2ncnc2c1C [Example 385, 5-(7,8-dimethyl-[1,2,4]triazolo[1,5-a]pyridin-6-yl)-6-isopropyl-4H-pyrrolo[3,2-d]thiazole-2-carboxamide] | > 50 µM |
| Cc1cc(-c2[nH]c3sc(N4CCN(C(=O)CN(C)C)C[C@H]4C)nc3c2C(C)C)cn2ncnc12 [Example 360, (R)-2-(dimethylamino)-1-(4-(6-isopropyl-5-(8-methyl-[1,2,4]triazolo[1,5-a]pyridin-6-yl)-4H-pyrrolo[3,2-d]thiazol-2-yl)-3-methylpiperazin-1-yl)ethan-1-one] | > 50 µM |
| Cc1c(-c2[nH]c3sc(N4CCN(CC(=O)N(C)C)C[C@H]4C)nc3c2C(C)C)cn2ncnc2c1C [Example 312, (R)-2-(4-(5-(7,8-dimethyl-[1,2,4]triazolo[1,5-a]pyridin-6-yl)-6-isopropyl-4H-pyrrolo[3,2-d]thiazol-2-yl)-3-methylpiperazin-1-yl)-N,N-dimethylacetamide] | > 50 µM |
| Cc1c(-c2[nH]c3sc(CN4CCNC(=O)C4)nc3c2C(C)C)cn2ncnc2c1C [Example 406, 4-((5-(7,8-dimethyl-[1,2,4]triazolo[1,5-a]pyridin-6-yl)-6-isopropyl-4H-pyrrolo[3,2-d]thiazol-2-yl)methyl) piperazin-2-one] | > 50 µM |
| CC(C)c1c(-c2cn(C)c3ncccc23)[nH]c2sc(C3CCN(CC(N)=O)CC3)nc12 [Example 31, 2-(4-(6-isopropyl-5-(1-methyl-1H-pyrrolo[2,3-b]pyridin-3-yl)-4H-pyrrolo[3,2-d]thiazol-2-yl)piperidin-1-yl) acetamide] | > 50 µM |
| COc1cc(-c2[nH]c3sc(C(=O)NCC(F)(F)F)nc3c2C(C)C)cn2ncnc12 [Example 390, 6-isopropyl-5-(8-methoxy-[1,2,4]triazolo[1,5-a]pyridin-6-yl)-N-(2,2,2-trifluoroethyl)-4H-pyrrolo[3,2-d]thiazole-2-carboxamide] | > 50 µM |
| Cc1c(-c2[nH]c3sc(N4CCN(C5CCC5)C[C@@H]4C)nc3c2C(C)C)cn2ncnc2c1C [Example 349] | > 50 µM |
| Cc1c(-c2[nH]c3sc(N4CC5(CN(CC6CCOCC6)C5)C4)nc3c2C(C)C)cn(C)c(=O)c1C [Example 307, 5-(6-isopropyl-2-(6-((tetrahydro-2H-pyran-4-yl)methyl)-2,6-diazaspiro[3.3]heptan-2-yl)-4H-pyrrolo[3,2-d]thiazol-5-yl)-1,3,4-trimethylpyridin-2 (1H)-one] | > 50 µM |
| Cc1c(-c2[nH]c3sc(C(=O)N4CCNC(=O)C4)nc3c2C(C)C)cn2ncnc2c1C [Example 378, 4-(5-(7,8-dimethyl-[1,2,4]triazolo[1,5-a]pyridin-6-yl)-6-isopropyl-4H-pyrrolo[3,2-d]thiazole-2-carbonyl)piperazin-2-one] | > 50 µM |
| Cc1cc(-c2[nH]c3sc(C(=O)N4CCNC(=O)C4)nc3c2C(C)C)cn2ncnc12 [Example 392, 4-(6-isopropyl-5-(8-methyl-[1,2,4]triazolo[1,5-a]pyridin-6-yl)-4H-pyrrolo[3,2-d]thiazole-2-carbonyl)piperazin-2-one] | > 50 µM |
| Cc1cc(-c2[nH]c3sc(C(=O)N4CCCOCC4)nc3c2C(C)C)cn2ncnc12 [Example 394, (6-isopropyl-5-(8-methyl-[1,2,4]triazolo[1,5-a]pyridin-6-yl)-4H-pyrrolo[3,2-d]thiazol-2-yl)(1,4-oxazepan-4-yl)methanone] | > 50 µM |
| Cc1c(-c2[nH]c3sc(N4CCN(CC(C)(C)O)C[C@@H]4C)nc3c2C(C)C)cn2ncnc2c1C [Example 345, (S)-1-(4-(5-(7,8-dimethyl-[1,2,4]triazolo[1,5-a]pyridin-6-yl)-6-isopropyl-4H-pyrrolo[3,2-d]thiazol-2-yl)-3-methylpiperazin-1-yl)-2-methylpropan-2-ol] | > 50 µM |
| Cc1c(-c2[nH]c3sc(C4CCN(CC(N)=O)CC4)nc3c2C(C)C)cn(C)c(=O)c1C [Example 64, 2-(4-(6-isopropyl-5-(1,4,5-trimethyl-6-oxo-1,6-dihydropyridin-3-yl)-4H-pyrrolo[3,2-d]thiazol-2-yl)piperidin-1-yl)acetamide] | > 50 µM |
| CNC(=O)CN1CCN(c2nc3c(C(C)C)c(-c4cn5ncnc5c(C)c4C)[nH]c3s2)CC1 [Example 284, 2-(4-(5-(7,8-dimethyl-[1,2,4]triazolo[1,5-a]pyridin-6-yl)-6-isopropyl-4H-pyrrolo[3,2-d]thiazol-2-yl)piperazin-1-yl)-N-methylacetamide] | > 50 µM |
| Cc1c(-c2[nH]c3sc(N4CC5(C4)CN(C4COC4)C5)nc3c2C(C)C)cn2ncnc2c1C [Example 302, 5-(7,8-dimethyl-[1,2,4]triazolo[1,5-a]pyridin-6-yl)-6-isopropyl-2-(6-(oxetan-3-yl)-2,6-diazaspiro[3.3]heptan-2-yl)-4H-pyrrolo[3,2-d]thiazole] | > 50 µM |
| Cc1c(-c2[nH]c3sc(N4CCN(CCS(C)(=O)=O)C[C@H]4C)nc3c2C(C)C)cn2ncnc2c1C [Example 314, (R)-5-(7,8-dimethyl-[1,2,4]triazolo[1,5-a]pyridin-6-yl)-6-isopropyl-2-(2-methyl-4-(2-(methylsulfonyl)ethyl)piperazin-1-yl)-4H-pyrrolo[3,2-d]thiazole] | > 50 µM |
| Cc1c(-c2[nH]c3sc(C(=O)N4CCN(S(C)(=O)=O)CC4)nc3c2C(C)C)cn2ncnc2c1C [Example 384, (5-(7,8-dimethyl-[1,2,4]triazolo[1,5-a]pyridin-6-yl)-6-isopropyl-4H-pyrrolo[3,2-d]thiazol-2-yl)(4-(methylsulfonyl)piperazin-1-yl) methanone] | > 50 µM |
| Cc1c(-c2[nH]c3sc(C4CCN(CCS(C)(=O)=O)CC4)nc3c2C(C)C)cn2ncnc2c1C [Example 55, 5-(7,8-dimethyl-[1,2,4]triazolo[1,5-a]pyridin-6-yl)-6-isopropyl-2-(1-(2-(methylsulfonyl)ethyl)piperidin-4-yl)-4H-pyrrolo[3,2-d]thiazole] | > 50 µM |
| Cc1c(-c2[nH]c3sc(N4CCN(C5COC5)C[C@H]4C)nc3c2C(C)C)cn2ncnc2c1C [Example 316, (R)-5-(7,8-dimethyl-[1,2,4]triazolo[1,5-a]pyridin-6-yl)-6-isopropyl-2-(2-methyl-4-(oxetan-3-yl)piperazin-1-yl)-4H-pyrrolo[3,2-d]thiazole] | > 50 µM |
